{
  "source": "paper PMC7961786",
  "about": "“Magic Peptide: Unique Properties of the LRR11 Peptide in the Activation of Leukotriene Synthesis in Human Neutrophils” (International Journal of Molecular Sciences, 2021)",
  "key": {"[1]": {"system": "NeutrAvidin", "test": "TSM acoustic biosensor, unspecific binding to NeutrAvidin in the absence of ODNs", "description": "(§1) To characterize the interaction of the studied synthetic ODNs with the LRR11 peptide, we applied the thickness shear mode (TSM) acoustic biosensor method, which is based on the investigation of ultrasonic waves in piezoelectric materials such as AT-cut quartz. This approach involved immobilizing a 5′-biotinylated ODN on the surface of TSM transducer covered by NeutrAvidin and then adding the LRR11 peptide. An unrelated peptide (URP) with a random primary structure ([…]) was used as a negative control. The measurement procedure was divided into several steps, in which each immobilization stage was followed by washing with an appropriate buffer solution; when peptide solutions at different concentrations (from 1 to 100 nM) were added to the surface-modified TSM transducer, a wash with Hanks buffer was used before increasing the peptide concentration.\n(§2) Eight MHz AT-cut piezoelectric quartz crystal transducer was obtained from CH Instruments, Austin, TX, USA. The transducer was covered on both sides with thin layers of gold that served as electrodes (working area 0.2 cm^2). Prior ODNs immobilization, the crystal was carefully cleaned with basic Piranha solution (29% NH3, 30% H2O and H2O2 with volumetric 1:5:1 ratio, respectively) for 25 min. After the thorough cleaning, the crystal was positioned between two silicon O-rings in a flow-through cell. […]"}, "[2]": {"system": "5′-biotinylated B-CpG", "test": "TSM acoustic biosensor, peptide binding to immobilized B-CpG", "details": "URP, immobilized B-CpG", "description": "as §1\n(§3) Based on Langmuir isotherm Equation (1), (1) Δfcc=Δfsmaxc/KD+c where Δfs(c) is the frequency change at a certain peptide concentration under equilibrium conditions, (Δfs)max is the maximum frequency change, c is the peptide concentration, and KD is the equilibrium constant of dissociation, we estimated the (Δfs)max and KD values for binding of the LRR11 peptide to C-CpG and B-CpG (Table 3).\nEight MHz AT-cut piezoelectric quartz crystal transducer was obtained from CH Instruments, Austin, TX, USA. The transducer was covered on both sides with thin layers of gold that served as electrodes (working area 0.2 cm^2). Prior ODNs immobilization, the crystal was carefully cleaned with basic Piranha solution (29% NH3, 30% H2O and H2O2 with volumetric 1:5:1 ratio, respectively) for 25 min. After the thorough cleaning, the crystal was positioned between two silicon O-rings in a flow-through cell. The analyte was injected into the cell using a Genie Plus syringe pump (Kent Scientific, Torrington, CT, USA) at a flow rate of 50 μL/min. Each solution was applied until the resonance frequency stabilized. The surface of the transducer was first washed with deionized water, and then 125 μg/mL NeutrAvidin (WWR International GmbH, Vienna, Austria) solution in water was applied. Approximately 15 min were required to stabilize the signal at a constant NeutrAvidin flow rate. This was followed by washing with water to rinse out all non-chemisorbed NeutrAvidin molecules. Immobilization of ODN on the gold surface of the crystals is accomplished using avidin–biotin interactions. A 1 μM 5′-biotinylated ODN solution was injected over the neutravidin-modified surface and subsequently the crystal was washed again with water. The system was then equilibrated using Hanks buffer solution. This buffer was suitable for studying LRR11–ODN binding. Then LRR11 was used at concentrations of 1, 5, 10, 50 and 100 nM […] in Hanks buffer. After each addition of LRR11, the sensor surface was washed with Hanks buffer and LRR11 with the higher concentration was added. All binding experiments were carried out at room temperature. Buffer and sample solutions were introduced in a flow-through format. A network analyzer 8712ES (Agilent Technologies, Santa Clara, CA, USA) was used to measure the impedance properties of the sensor and determine fS and Rm."}, "[3]": {"system": "5′-biotinylated C-CpG", "test": "TSM acoustic biosensor, peptide binding to immobilized C-CpG", "details": "up to 100 nM URP, immobilized C-CpG; Figure 4A", "description": "as §1, §3\nUsing Sauerbrey’s Equation (2), (2) Δf=−2f02Δm/Aμqρq where f0 is the fundamental resonance frequency (in our case 8 MHz), Δm is the change in mass (in grams) of the adsorbed layer on the crystal surface, A is the effective crystal area (in our case 0.2 cm^2), μq = 2.947 × 10^11 g × cm^−1s^−2 is the shear modulus of elasticity, and ρq = 2.648 g × cm^−3 is the crystal density, surface concentrations of NeutrAvidin, ODN and LRR11 peptide were estimated based on changes of resonance frequency (Figure 4). According to Equation (2), the surface density of molecules, σ (in molecules/cm^2), can be calculated as σ = ΔmNA/(A × Mw), where NA is Avogadro’s number (=6.023 × 10^23 mol^−1), and Mw represents the molecular weight of the corresponding compound (NeutrAvidin: 65 kDa, 5′-biotinylated C-CpG: 7115.4 Da, and LRR11: 3421 Da). Based on this approach, we obtained the following surface concentration values: 1.94 × 10^13 cm^−2 for NeutrAvidin, 3.37 × 10^13 cm^−2 for C-CpG and 2.4 × 10^13 cm^−2 for LRR11. The NeutrAvidin has four binding sites, two of which are available for biotinylated ODN binding. This is due to the fact that the other two sites are inaccessible due to NeutrAvidin chemisorption on the TSM surface. Thus, the number of available binding sites for the ODN is 3.88 × 10^13 cm^−2. […] Therefore, the surface of the TSM transducer is practically completely saturated by C-CpG. Estimation of the surface concentration of LRR11 evidences that at 50 nM concentration of this peptide, it occupies almost 70.6% of the ODN molecules. […]"}, "[4]": {"system": "5′-biotinylated G-rich ODN", "test": "TSM acoustic biosensor, peptide binding to immobilized G-rich ODN", "details": "URP, immobilized G-rich ODN", "description": "as §1, §2"}, "[5]": {"system": "human neutrophils (PMNLs), 5-LOX product synthesis", "test": "5-LOX metabolite synthesis in human neutrophils stimulated with opsonized S. typhimurium (HPLC)", "format": "cell-based", "protocol": "Figure 1 Effects of LRR11 and ODNs on the formation of LTB4 (A,B) and the sum of 5-LOX metabolites (ω-OH-LTB4, LTB4 and its isomers, and 5-HETE) (C) in human PMNLs. PMNLs (2 × 10^7) were incubated for 15 min at 37 °C without (black bars) or with 1 μM LRR11 (A, LRR11_first); then ODNs and LRR11 or LPS were added; various ways of adding ODN and LRR11 peptide are indicated. In control samples, Hanks’ solution was added instead of ODNs. After 20 min, 0.5 × 10^9 S. typhimurium bacterial cells were added for a further 15 min. The 5-LOX products were determined using HPLC. Values indicate mean ± SEM of five independent experiments performed in duplicate. * p < 0.05, ** p < 0.01, *** p < 0.005, compared with the control. # p < 0.05, ## p < 0.01 for pairs of data compared as indicated by two-way ANOVA followed by Tukey’s multiple comparison test.\nFigure 3 Synthesis of the 5-LOX metabolites in PMNLs exposed to opsonized S. typhimurium bacteria in the presence of the RAGE antagonist FPS-ZM1. PMNLs (2 × 10^7) were incubated for 15 min at 37 °C without additives or with 0.15 µM FPS-ZM1, for the next 20 min the mixture was incubated with 1 µM ODNs without (black bars) or with 1 µM LRR11 (gray bars) before adding 5 × 10^8 S. typhimurium for 15 min. In control samples, Hanks’ solution was added instead of ODNs. The 5-LOX products were determined using HPLC. Graphical data are presented for LTB4 (A) or the sum of LTB4 and its isomers, ω-OH-LTB4 and 5-HETE, designed as Σ5LOX products (B).\nHuman neutrophils were isolated from freshly taken citrate-anticoagulated peripheral blood from healthy individuals using standard methods. Leukocyte-rich plasma was prepared by sedimentation of erythrocytes with 3% dextran T-500 at room temperature. For purification of granulocytes, centrifugation through Ficoll-Paque (density 1.077 g/mL) was used, followed by hypotonic lysis of the remaining erythrocytes. […] All methods were performed in accordance with the relevant instructions and regulations of the Ministry of Health of the Russian Federation and local legislation.\nBacteria (S. typhimurium IE 147 strain) obtained from the Collection of Gamaleya National Research Center of Epidemiology and Microbiology (Moscow, Russia) were grown in Luria–Bertani broth to a concentration of 1 × 10^9 colony-forming units (CFU)/mL. The bacteria were collected by centrifugation at 2000 g and opsonized immediately before the experiment for 30 min in 20% (v/v) fresh serum from the same donor whose blood was used to isolate neutrophils. Repeated centrifugation in Dulbecco’s solution was used to wash the bacteria.\nThe cell suspension (2 × 10^7 PMNLs in HBSS/HEPES, reaction volume of 6 mL) was cultured for 15 min in an incubator at 37 °C, 5% CO2. Then 1.0 µM ODN with or without 1.0 µM LRR11, or 2 µg/mL LPS, was added as indicated. After 20 min, the cells were stimulated with S. typhimurium (the ratio of bacteria to PMNLs was approximately 20:1) for the next 15 min [3]. The synthesis of 5-LOX metabolites was stopped by adding an equal volume of methanol at −20 °C with prostaglandin B2 as an internal standard. Samples were stored at −20 °C. The denatured cell suspension was centrifuged, and supernatants designated as water/methanol extracts.\n(§4) To purify the water/methanol extracts, solid-phase extraction was used on Sep-Pak C18 cartridges (500 mg; Macherey-Nagel, Dueren, Germany), which were conditioned first with methanol, and then with water. Major 5-LOX metabolites were identified by comparing retention times with those of known compounds, as previously described.\nTable S1. Effect of Chloroquine on 5-LOX product formation in PMNLs after ODN priming followed by the addition\nof opsonized S. typhimurium bacteria."}, "[6]": {"system": "PMNLs, 5-LOX product formation", "test": "5-LOX product formation in PMNLs stimulated by calcium ionophore A23187", "format": "cell-based, human", "details": "1 µM A23187 alone for 10 min, after 30 min at 37 °C without inhibitor; mean ± SEM, three independent experiments", "protocol": "Human neutrophils were isolated from freshly taken citrate-anticoagulated peripheral blood from healthy individuals using standard methods. Leukocyte-rich plasma was prepared by sedimentation of erythrocytes with 3% dextran T-500 at room temperature. For purification of granulocytes, centrifugation through Ficoll-Paque (density 1.077 g/mL) was used, followed by hypotonic lysis of the remaining erythrocytes. PMNLs were washed twice in PBS, resuspended at 10^7 cells/mL (96–97% purity, 98–99% viability) in Dulbecco’s PBS containing 1 mg/mL glucose (no CaCl2) and stored at room temperature. All methods were performed in accordance with the relevant instructions and regulations of the Ministry of Health of the Russian Federation and local legislation.\nas §4"}},
  "note": "Oligonucleotides are written 5' to 3', each unit as a sugar letter and its base; * is a phosphorothioate linkage, no mark a phosphodiester; rarer units and linkages stand in square brackets, end groups in braces. Plain capitals give the bases only. d = 2'-deoxy (DNA)",
  "data": [
    {"compound": "LQTLDLRDNALTTIHFIPSIPD [URP, unrelated peptide with a random primary structure, negative control, reference compound]", "values": [
      {"measurement": "unspecific binding to NeutrAvidin", "setting": "[1]", "result": "no unspecific biding"},
      {"measurement": "interaction of URP with ODN", "setting": "[2]", "result": "absence of interactions between the URP and ODNs"},
      {"measurement": "frequency reduction by URP", "setting": "[3]", "result": "no frequency reduction was occurred even after the addition of 100 nM URP"},
      {"measurement": "interaction of URP with ODN", "setting": "[4]", "result": "absence of interactions between the URP and ODNs"}
    ]},
    {"compound": "5′- ggGGACGACGTCGTGgggggg-3′ (DNA dG*dG*dGdGdAdCdGdAdCdGdTdCdGdTdGdG*dG*dG*dG*dG*dG) [A-CpG]", "values": [
      {"measurement": "effect on 5-LOX activity / leukotriene synthesis", "setting": "[5]; ODN alone, 1 µM, 20 min, then opsonized S. typhimurium 15 min, Figure 1, five independent experiments in duplicate", "result": "did not significantly affect 5-LOX activity"},
      {"measurement": "Σ 5-LOX metabolites", "setting": "[5]; Table S1, 2×10^7 PMNLs, 15 min at 37 °C without or with 5 µM Chloroquine, then ODN, after 20 min 0.5×10^9 opsonized S. typhimurium for 15 min, mean ± SEM, three independent experiments", "result": "18.4 ± 2.1", "unit": "ng/107 PMNLs"}
    ]},
    {"compound": "CNc1ccc2oc(C[C@H]3O[C@@]4(CC[C@H]3C)O[C@H]([C@H](C)C(=O)c3ccc[nH]3)[C@H](C)C[C@H]4C)nc2c1C(=O)O", "note": "[A23187]", "values": [
      {"measurement": "Σ 5-LOX metabolites", "setting": "[6]", "result": "416 ± 37", "unit": "ng/10^7 PMNLs"}
    ]}
  ]
}
